Structures can show the parent of a compound that is named as a salt.

As usually defined, the IC50 is the concentration at which inhibition is half-maximal. Read a low IC50 as greater potency. For orientation: clearance means the rate of elimination divided by the concentration. As a reminder, the bioavailability is the share of a dose that reaches the circulation, judged against a reference dose that is usually intravenous. Low readings indicate poor availability, high ones good availability. In general, Cmax refers to the maximum level reached in the sampled fluid or tissue.

The subject of series [1] is STF reporter gene for WNT pathway (Porcupine of the Wnt signaling pathway). As to the kind of experiment: Inhibitory activity on Super-Top-Flash (STF) reporter gene. In kind it is cell-based. Particulars: HEK293 STF and L wnt3A cells 1:1, 24 hours, Bright-Glo. The protocol: 1. Assay of Inhibitory Activity on Super-Top-Flash (STF) Reporter Gene
HEK293 STF and L wnt3A cells were planted at a ratio of 1:1 in a white 96-well plate with 80 μL of cell suspension per well, which contained 20,000 HEK293 STF cells and 20,000 L wnt3A cells. The cell plate was placed in a carbon dioxide incubator for culture overnight.
The assay compound was serially diluted 5-fold with a discharge gun to the 8th concentration, that is, from 400 μM to 5.12 nM, in duplicate. 78 μL of medium was added to the middle plate, and then 2 μL of the serially diluted compound was transferred to each well of the middle plate according to the corresponding position. After mixing, 20 μL of the mixture was transferred to each well of the cell plate. The cell plate was placed in a carbon dioxide incubator for 24 hours.
100 μL of Promega Bright-Glo reagent was added to each well of the cell plate, and the cell plate was incubated at room temperature for 10 minutes to stabilize the luminescence signal. A multi-label analyzer was used to read results.
The original data of the multi-label analyzer was used for calculation, and the value of IC50 can be obtained by curve fitting. Table 1 provides data of the inhibitory activity of the compounds of the present disclosure on the Wnt signaling pathway.
A general note: A reporter such as luciferase makes a cellular process visible.

A further series deals with Capan-2 cells. Nature of the series: Anti-proliferative activity on Capan-2 cells. The following applies: Homo sapiens, Capan-2, 120 h; 5 days, CellTiter-Glo. In kind it is cell-based. The method, then: 2. Assay of Anti-Proliferative Activity on Capan-2 Cells
Capan-2 cells were planted in a white 96-well plate with 80 μL of cell suspension per well, which contained 5000 Capan-2 cells. The cell plate was placed in a carbon dioxide incubator for culture overnight.
The assay compound was serially diluted 3-fold with a discharge gun to the 9th concentration, that is, from 200 μM to 30 nM, in duplicate. 78 μL of medium was added to the middle plate, and then 2 μL of the serially diluted compound was transferred to each well of the middle plate according to the corresponding position. After mixing, 20 μL of the mixture was transferred to each well of the cell plate. The cell plate was incubated in a carbon dioxide incubator for 5 days. Another cell plate was prepared, and read on the day of drug addition. The signal value was used as the maximum value (The value of Max in the equation below) in data analysis. 25 μL of chemiluminescence detection reagent for cell viability was added to each well of this cell plate, and this cell plate was incubated at room temperature for 10 minutes to stabilize the luminescence signal. A multi-label analyzer was used to read results.
After the cell plate was cultured for 5 days, 25 μL of Promega CellTiter-Glo reagent was added to each well of the cell plate. The cell plate was incubated at room temperature for 10 minutes to stabilize the luminescence signal. A multi-label analyzer was used to read results.
The value of IC50 can be obtained by curve fitting. Table 2 provides the inhibitory activity of the compounds of the present disclosure on Capan-2 cell proliferation.

Series [2] in a line: Pharmacokinetic evaluation of compounds in mice. In kind it is in vivo. The following applies: mouse, plasma, male CD-1 mice; for clearance / bioavailability / half-life / Vd: IV 0.5 mg/kg; for bioavailability / AUC(0-t): PO 2.5 mg/kg; for half-life: read-out: T1/2 IV (converted); for Vd: read-out: Vdss; for AUC(0-t): read-out: AUC0-last PO; for Cmax: single dose, route not stated (IV 0.5 mg/kg, PO 2.5 mg/kg). The protocol: Assay 4: Pharmacokinetic Evaluation of Compounds
Assay purpose: Pharmacokinetics of compounds in […] mice was assayed.
CD-1 mice (male, 7-9 weeks old, Shanghai Slack)
The pharmacokinetic characteristics of rodents after intravenous (IV) and oral (PO) administration of compounds were assayed by standard protocols. In the assay, mice were given a single intravenous injection and oral administration. The vehicle for intravenous injection was water. The oral vehicle was 0.5% hypromellose. Four male CD-1 mice were used in this project. Two mice were administered intravenously at a dose of 0.5 mg/kg, and plasma samples were collected at 0 h (before administration) and 0.083, 0.25, 0.5, 1, 2, 4, 8, and 24 h after administration. The other two mice were orally administered by gavage at a dose of 2.5 mg/kg, and plasma samples were collected at 0 h (before administration) and 0.25, 0.5, 1, 2, 4, 8, and 24 h after administration. Whole blood samples within 24 hours were collected, and centrifuged at 3000 g for 15 minutes. The supernatant was separated to obtain a plasma sample, and protein was precipitated by adding 4 times volume of acetonitrile solution containing internal standard. The mixture was centrifuged to obtain a supernatant, and an equal volume of water was added to the obtained supernatant. The mixture was then centrifuged to obtain a supernatant for injection. The blood drug concentration was quantitatively analyzed by LC-MS/MS analysis method, and pharmacokinetic parameters were calculated, such as peak concentration (Cmax), clearance rate (CL), half-life (T1/2), […] (Vdss), area under the drug-time curve (AUC0-last), and bioavailability (F), etc.
The assay results are shown in Table 4: The compounds of the present disclosure have good pharmacokinetic properties.

Series [3] has as its system human pancreatic cancer Capan-2 xenograft tumor. Nature of the series: In vivo drug efficacy on Capan-2 transplanted tumor in nude mice. The protocol: 3. Assay of In Vivo Drug Efficacy on Capan-2 Transplanted Tumor in Nude Mice
Capan-2 cells were cultured in McCoy's 5A medium, containing 10% fetal bovine serum FBS, in a 37° C. incubator with 5% CO2. Tumor cells were collected after passaging and growing to a suitable concentration and during the logarithmic growth phase. The cells resuspended in McCoy's 5A medium were counted and the cell suspension was adjusted to a concentration of 2×10^7/mL for inoculation.
Establishment of human pancreatic cancer Capan-2 xenograft tumor. Cells were collected and the concentration was adjusted to 2×10^7 (resuspend with McCoy's 5A medium to a cell suspension containing 50% Martigel). Under aseptic conditions, 0.1 mL of tumor cells was injected subcutaneously into the right back of the mouse, and the number of cells inoculated per mouse was 2×10^6. After the tumor was grown to a certain size, digital vernier calipers was used to measure the length (a) and width (b) of the tumor, and the tumor volume was calculated. The calculation formula of tumor volume (TV) was: TV=a×b^2/2.
Capan-2 tumor cells were inoculated. When the tumor was grown to about 150 cubic millimeters, mice were divided into groups with 6 mice in each group. The day of grouping was regarded as day 0, and the drug was administered on the day of grouping. During the assay, the animal's body weight and tumor size were measured twice a week, and the animal's clinical symptoms were observed and recorded every day. For each administration, the most recently weighed animal body weight was referred to.
The evaluation index of anti-tumor activity is relative tumor proliferation rate T/C (%), wherein T/C (%)>40% means ineffective, and T/C (%)<40% and statistically P<0.05 means effective. The calculation formula of T/C (%) is: T/C (%)=(TRTV/CRTV)×100%. TRTV is relative tumor volume of the treatment group, and CRTV is relative tumor volume of the negative control group. TGI (%)^b tumor inhibition rate=(average tumor volume or weight of negative control group-average tumor volume or weight of administration group)/average tumor volume or weight of negative control group×100%. TGI (%)^a=[(1−(average tumor volume of a certain administration group at the time of measurement-average tumor volume of the administration group at the beginning of the administration))/(average tumor volume of vehicle control group at the time of measurement-average tumor volume of the vehicle control group at the beginning of the administration)]×100%.

[4] abbreviates: 5 mg/Kg, BID, 31 days, Capan-2 Xenograft model.

On to `Cc1cc(-c2ncc(CNc3nccn4c(C(=O)N(C)C)cnc34)cc2C)ccn1` [Compound 16], for which the IC50 in series [1] is less than 0.001 nM.
In the series on Capan-2 cells, `Cc1cc(-c2ncc(C(CO)Nc3nccn4c(-c5ccccc5)cnc34)cc2C)ccn1` (stereo not drawn) [Compound 35] returned an IC50 of 10.1 nM.
For `Cc1cc(-c2ncc(CNc3nccn4c(N5CCNCC5)cnc34)cc2C)ccn1` [Compound 5], half-maximal inhibition in series [1] (IC50) required 9.7 nM.
`Cc1cc(-c2ccc(CNc3nccn4c(-c5ccccc5)cnc34)cc2N(C)C)ccn1` [Compound 23]: in the series on Capan-2 cells, inhibition was half-maximal at 0.74 nM (IC50).
For the compound `Cc1cc(-c2ncc(CNc3nccn4c(-c5ccc(C#N)cc5)cnc34)cc2C)ccn1` [Compound 8], the IC50 in series [1] was found to be 6.56 nM; with Capan-2 cells, 109 nM.
The like results for `Cc1cc(-c2ccc(CNc3nccn4c(-c5ccccc5)cnc34)cc2C)ccn1` [Compound 17] were, in that order, 0.23 nM and 1.45 nM.
The compound `CC(=O)N1CCC(c2cnc3c(NCc4cnc(-c5ccnc(C)c5)c(C)c4)nccn23)CC1` [Compound 14] showed an IC50 in series [1] of less than 0.001 nM.
As for `Cc1cc(-c2ncc(CNc3nccn4c(-c5cccc(Cl)c5)cnc34)cc2C)ccn1` [Compound 28 (hydrochloride)], the IC50 in series [1] came out at 0.86 nM. This compound displayed an IC50 with Capan-2 cells of 1.43 nM. In series [2], the clearance worked out at 4.16 mL/min/kg, the bioavailability was 66.6%, the half-life was 2.6 h and the Vd stood at 0.553 L/kg. In series [2], the AUC(0-t) came out at 15.1 µM·h and the Cmax is 2340 nM.
For `Cc1cc(-c2ccc(CNc3nccn4c(-c5ccccc5)cnc34)cn2)ccn1` [Compound 19], the IC50 in series [1] is 0.017 nM; in the series on Capan-2 cells, 4.61 nM.
For `Cc1cc(-c2ncc(CC(=O)Nc3ccc(-c4cnccn4)cn3)cc2C)ccn1` [LGK974, reference compound], in series [3] (5 mg/Kg BID (twice a day) for 31 days), the “inhibitory effect on human pancreatic cancer Capan-2 xenograft tumor (in words)” value is reported as “inhibitory effect”. Also, in series [3] (setting [4]), the T/C % is given as 36.33% and the TGI % is listed as 78.3%.
On to `Cc1cc(-c2ncc(CNc3nccn4c(-c5cc(F)cc(F)c5)cnc34)cc2OC2CCN(C)CC2)ccn1` [Compound 34], for which the midpoint of inhibition in the series with Capan-2 cells, the IC50, lay at 1.9 nM.
In series [1], `Cc1cc(-c2ncc(CNc3nccn4c(-c5ccc(F)cc5)cnc34)cc2C)ccn1` [Compound 3] displayed an IC50 of 0.96 nM.
For `COc1cc(-c2ncc(CNc3nccn4c(-c5ccccc5)cnc34)cc2C)ccn1` [Compound 20], the IC50 turned out to be 0.4 nM in series [1] and 18.5 nM with Capan-2 cells.
`Cc1cc(-c2ccc(CNc3nccn4c(-c5ccccc5)cnc34)cc2C#N)ccn1` [Compound 22 (formate)] registered an IC50 with Capan-2 cells of 1.24 nM. In addition, in series [2], the clearance was found to be 8.24 mL/min/kg, the bioavailability turned out to be 71.9%, the half-life was 3.13 h and the Vd is 1.09 L/kg. Also, in series [2], the AUC(0-t) stood at 11.9 µM·h and the peak level (Cmax) was 1820 nM.
Regarding `Cc1cc(-c2ncc(CNc3nccn4c(C5CCN(C(C)C)CC5)cnc34)cc2C)ccn1` [Compound 13 (formate)], the IC50 in series [1] amounted to 0.56 nM.
In series [1], `Cc1cc(-c2ncc(CNc3nccn4c(-c5cccc(F)c5)cnc34)cc2C)ccn1` [Compound 29 (hydrochloride)] yielded an IC50 of 0.38 nM. Further, in the series on Capan-2 cells, half-maximal inhibition (IC50) was put at 0.35 nM. For the same compound, in series [2], the clearance is 5.05 mL/min/kg, the bioavailability was 89%, the half-life was 2.78 h and the Vd came to 0.641 L/kg. Moreover, in series [2], the AUC(0-t) worked out at 17.3 µM·h and the concentration peaked (Cmax) at 2640 nM.
For the compound `Cc1cc(-c2ccc(CNc3nccn4c(-c5ccccc5)cnc34)c(F)c2)ccn1` [Compound 31], in the series on Capan-2 cells, the 50% inhibitory concentration (IC50) worked out at 4.7 nM.
Take `Cc1cc(CNc2nccn3c(-c4ccccc4)cnc23)cnc1-c1ccnn1C` [Compound 18]: the IC50 in series [1] turned out to be 0.0128 nM; with Capan-2 cells it was 19.1 nM.
The like results for `Cc1cc(-c2ncc(CNc3nccn4c(C5CC5)cnc34)cc2C)ccn1` [Compound 10] were, in that order, 13.5 nM and greater than 1000 nM.
Regarding `CC(=O)N1CCN(c2cnc3c(NCc4cnc(-c5ccnc(C)c5)c(C)c4)nccn23)CC1` [Compound 6], half-maximal inhibition in series [1] (IC50) required 0.58 nM.
On to `Cc1cc(-c2ncc(CNc3nccn4c(-c5cccnc5)cnc34)cc2C)ccn1` [Compound 2], for which the IC50 is 0.12 nM in series [1] and 4.26 nM in the series on Capan-2 cells.
With `Cc1cc(-c2ncc(CNc3nccn4c(-c5ccccc5)cnc34)cc2F)ccn1` [Compound 21], the midpoint of inhibition with Capan-2 cells, the IC50, lay at 0.43 nM.
As for `COc1ccc(-c2cnc3c(NCc4cnc(-c5ccnc(C)c5)c(C)c4)nccn23)cc1` [Compound 9 (formate)], the IC50 is 8.95 nM in series [1] and 103 nM with Capan-2 cells.
Take `Cc1cc(-c2ncc(C(C)Nc3nccn4c(-c5ccccc5)cnc34)cc2C)ccn1` (stereo not drawn) [Compound 32 (hydrochloride)]: the midpoint of inhibition in the series on Capan-2 cells, the IC50, lay at 3.04 nM.
For the compound `Cc1cc(-c2ncc(CNc3nccn4c(-c5cnn(C)c5)cnc34)cc2C)ccn1` [Compound 4], the figures for the IC50 (in series [1]; in the series on Capan-2 cells) were 0.14 nM and 964 nM, respectively.
For `Cc1cc(-c2ncc(CNc3nccn4c(C(=O)Nc5ccccc5)cnc34)cc2C)ccn1` [15 (formate)], in series [1], the IC50 stood at 0.15 nM.

Source of the values: patent US12365686B2, “Compound as porcupine inhibitor and use thereof” (JIANGSU KANION PHARMACEUTICAL CO., LTD., priority 2019, dated 2025).
